# Test results taken from patent US5244908A, “Imidazopyridine derivatives and their pharmaceutical use” (Takeda Chemical Industries, Ltd., priority 1990, dated 1993).
# Structures can show the parent of a compound that is named as a salt.
# Target: calmodulin (Bos taurus, UniProt P62157)
# Test: Calmodulin inhibitory activity (calmodulin-activated cyclic nucleotide phosphodiesterase, [3H]cGMP)
# Assay type: biochemical
# Settings: 10^-5 M
row,Structure (SMILES),inhibition at 10 µM [%]
1,"CCCCCCCCCCCCCCCCS(=O)(=O)NCCSc1cccc2nccn12 [Compound 9, 5-[2-(Hexadecylsulfonylamino)ethylthio]imidazo[1,2-a]pyridine]",100
2,"CS(=O)(=O)NCCSc1cccc2ncc(CN3CCOCC3)n12 [Compound 14, 5-[2-(methylsulfonylamino)ethylthio]3-morpholinomethylimidazo[1,2-a]pyridine]",85
3,"CN(C)Cc1cnc2cccc(SCCNS(C)(=O)=O)n12 [Compound 16, 3-Dimethylaminomethyl-5-[2-(methylsulfonylamino)ethylthio]imidazo[1,2-a]pyridine.dihydrochloride]",66
4,"O=S(=O)(/C=C/c1ccccc1)N(CCSc1cccc2nccn12)S(=O)(=O)/C=C/c1ccccc1 [Compound 50, 5-[2-[N,N-di-(E)-Styrylsulfonylamino]ethylthio]imidazo[1,2-a]pyridine]",65
5,"CS(=O)(=O)NCCOc1cccc2nccn12 [Compound 62, 5-[2-(Methylsulfonylamino)ethyloxy]imidazo[1,2-a]pyridine]",79
6,"O=S(=O)(N1CCC(Oc2cccc3nccn23)CC1)C(F)(F)F [Compound 77, 5-[1-(Trifuloromethylsulfonyl)-4-piperidyloxy]imidazo[1,2-a]pyridine]",80
7,"O=C(NCCSc1cccc2nccn12)C(F)(F)F [Compound 84, 5-[2-(Trifluoroacetylamino)ethylthio]imidazo[1,2-a]pyridine]",69
8,"CCNC(=O)NCCSc1cccc2nccn12 [Compound 101, 5-[2-(Ethylcarbamoylamino)ethylthio]imidazo[1,2-a]pyridine]",56
9,"CCCNC(=O)NCCSc1cccc2nccn12 [Compound 102, 5-[2-(Propylcarbamoylamino)ethylthio]imidazo[1,2-a]pyridine]",52
10,"CC(C)NC(=O)NCCSc1cccc2nccn12 [Compound 103, 5-[2-(Isopropylcarbamoylamino)ethylthio]imidazo[1,2-a]pyridine]",52
11,"O=C(NCCSc1cccc2nccn12)NC1CCCCC1 [Compound 105, 5-[2-(Cyclohexylcarbamoylamino)ethylthio]imidazo[1,2-a]pyridine]",67
12,"Cc1cn2c(SCCNC(=S)Nc3ccccc3)cccc2n1 [Compound 115, 2-Methyl-5-[2-(phenylthiocarbamoylamino)ethylthio]imidazo[1,2-a]pyridine]",53
13,"CNC(=O)OCCSc1cccc2nccn12 [Compound 118, 5-[2-(methylcarbamoyloxy)ethylthio]imidazo[1,2-a]pyridine]",74
14,"CCCOC(=O)NCCSc1cccc2nccn12 [Compound 130, 5-[2-(Propyloxycarbonylamino)ethylthio]imidazo[1,2-a]pyridine]",50
15,"CC(C)OC(=O)NCCSc1cccc2nccn12 [Compound 132, 5-[2-(Isopropyloxycarbonylamino)ethylthio]imidazo[1,2-a]pyridine]",50
16,"C=CCOC(=O)NCCSc1cccc2nccn12 [Compound 135, 5-[2-(Allyloxycarbonylamino)ethylthio]imidazo[1,2-a]pyridine]",60
17,"O=C(NCCSc1cccc2nccn12)OCC(Cl)(Cl)Cl [Compound 136, 5-[2-[2,2,2-(Trichloro)ethoxycarbonylamino]ethylthio]imidazo[1,2-a]pyridine]",52
18,"CC(C)OC(=O)NCCSc1cccc2ncc(CN3CCOCC3)n12 [Compound 144, 5-[2-(Isopropyloxycarbonylamino)ethylthio]-3-(morpholinomethyl)imidazo[1,2-a]pyridine]",60
19,"COC(=O)NCCCSc1cccc2nccn12 [Compound 145, 5-[3-(Methoxycarbonylamino)propylthio]imidazo[1,2-a]pyridine]",63
20,"O=S(=O)(N1CCC(Sc2cccc3nccn23)CC1)C(F)(F)F [Compound 165, 5-[1-(trifluoromethanesulfonyl)4-piperidylthio]imidazo[1,2-a]pyridine]",65
21,"CC(C)OC(=O)NCCCCSc1cccc2nccn12 [Compound 169, 5-[4-(isopropyloxycarbonylamino)butylthio]imidazo[1,2-a]pyridine]",58

# Results, then the molecule that gave them:
row,inhibition at 10 µM [%],Structure (SMILES)
1,50,"CC(C)S(=O)(=O)NCCSc1cccc2nccn12 [Compound 5, 5-[2-(Isopropylsulfonylamino)ethylthio]imidazo[1,2-a]pyridine]"
2,100,"O=S(=O)(NCCSc1cccc2nccn12)C(F)(F)F [Compound 26, 5-[2-(Trifluoromethylsulfonylamino)ethylthio]imidazo[1,2-a]pyridine]"
3,51,"CS(=O)(=O)NCCCSc1cccc2nccn12 [Compound 27, 5-[3-(Methylsulfonylamino)propylthio]imidazo[1,2-a]pyridine]"
4,64,"O=S(=O)(NCCSc1cccc2nccn12)c1ccccc1 [Compound 30, 5-[2-(Phenylsulfonylamino)ethylthio]imidazo[1,2-a]pyridine]"
5,62,"CC(=O)Nc1ccc(S(=O)(=O)NCCSc2cccc3nccn23)cc1 [Compound 32, 5-[2-[4-(Acetamido)phenylsulfonylamino]ethylthio]imidazo[1,2-a]pyridine]"
6,53,"O=S(=O)(NCCSc1cccc2nccn12)c1ccc(Cl)cc1 [Compound 34, 5-[2-[4-(Chloro)phenylsulfonylamino]ethylthio]imidazo[1,2-a]pyridine]"
7,58,"O=S(=O)(NCCSc1cccc2nccn12)c1cc(Cl)c(Cl)cc1Cl [Compound 37, 5-[2-[2,4,5-(Trichloro)phenylsulfonylamino]ethylthio]imidazo[1,2-a]pyridine]"
8,100,"O=S(=O)(NCCSc1cccc2nccn12)c1cccc2ccccc12 [Compound 42, 5-[2-[(1-Naphthyl)sulfonylamino]ethylthio]imidazo[1,2-a]pyridine]"
9,65,"O=S(=O)(NCCSc1cccc2nccn12)c1ccc2ccccc2c1 [Compound 44, 5-[2-[(2-Naphthyl)sulfonylamino]ethylthio]imidazo[1,2-a]pyridine]"
10,50,"CN(C)c1cccc2c(S(=O)(=O)NCCSc3cccc4nccn34)cccc12 [Compound 48, 5-[2-[5-(Dimethylamino)-(1-naphthylsulfonylamino)]ethylthio]imidazo[1,2-a]pyridine]"
11,83,"CC(=O)Nc1nc(C)c(S(=O)(=O)NCCSc2cccc3nccn23)s1 [Compound 51, 5-[2-[2-(Acetylamino)-4-(methyl)-(5-thiazolyl)sulfonylamino]ethylthio]imidazo[1,2-a]pyridine]"
12,62,"Cc1cn2c(SCCNS(=O)(=O)c3cccc4ccccc34)cccc2n1 [Compound 56, 2-Methyl-5-[2-(1-naphthylsulfonylamino)ethylthio]imidazo[1,2-a]pyridine]"
13,50,"CS(=O)(=O)NCC(Oc1cccc2nccn12)c1ccccc1 (centres unmarked) [Compound 74, 5-[2-(Methylsulfonylamino)-1-(phenyl)ethyloxy]imidazo[1,2-a]pyridine]"
14,55,"O=S(=O)(NCC(Oc1cccc2nccn12)c1ccccc1)C(F)(F)F (centres unmarked) [Compound 75, 5-[[1-(Phenyl)-2-(trifluoromethylsulfonylamino)]ethyloxy]imidazo[1,2-a]pyridine]"
15,56,"O=S(=O)(NCCOc1cccc2nccn12)c1cccc2ccccc12 [Compound 78, 5-[2-(1-(Naphthyl)sulfonylamino)ethyloxy]imidazo[1,2-a]pyridine]"
16,50,"O=S(=O)(NCCCOc1cccc2nccn12)c1cccc2ccccc12 [Compound 79, 5-[3-(1-(Naphthyl)sulfonylamino)propyloxy]imidazo[1,2-a]pyridine]"
17,76,"CC(=O)NCCSc1cccc2nccn12 [Compound 83, 5-[2-(acetylamino)ethylthio]imidazo[1,2-a]pyridine]"
18,51,"O=C(NCCSc1cccc2nccn12)c1ccccc1 [Compound 87, 5-[2-(Benzoylamino)ethylthio]imidazo[1,2-a]pyridine]"
19,54,"O=C(NCCSc1cccc2nccn12)c1cccs1 [Compound 89, 5-[2-[(2-Thenoylamino)]ethylthio]imidazo[1,2-a]pyridine]"
20,50,"COc1ccc(NC(=S)NCCSc2cccc3nccn23)cc1 [Compound 109, 5-[2-[4-(Methoxy)phenylthiocarbamoylamino]ethylthio]imidazo[1,2-a]pyridine]"
21,50,"COC(=O)NCCSc1cccc2nccn12 [Compound 128, 5-[2-(methoxycarbonylamino)ethylthio]imidazo[1,2-a]pyridine]"
22,81,"CC(=O)N(CCCSc1cccc2nccn12)CCNc1ccccc1 [Compound 158, 5-[3-[[2-(Anilino)ethyl]-N-(acetyl)amino]propylthio]imidazo[1,2-a]pyridine]"
23,56,"O=S(=O)(NCCCCSc1cccc2nccn12)c1cccc2ccccc12 [Compound 168, 5-[4-(1-naphthalenesulfonylamino)butylthio]imidazo[1,2-a]pyridine]"

# Test system: rat heart
# Test: Effect on incidence of arrhythmia caused by ischemia and following reperfusion in rat heart
# Assay type: in vivo
# Settings: 10 mg/kg oral, 1 hour before ligation; until 10 minutes after reperfusion
# Protocol: Effect on incidence of arrhythmia caused by ischemia and following reperfusion in rat heart
# Male Sprague Dawley rats (Japan Clea) of 9 to 10 weeks old were anesthetized with 50 mg/kg (i.p.) of sodium pentobarbital. The heart was exposed by a left thoractomy under artificial ventilation with room air and silk suture was placed under the main left coronary artery (LAD) to ligate for 5 minutes. Then, the ligature was released again for reperfusion. The incidence of ventricular tachycardia (VT), ventricular fibrillation (VF) and cardiac arrest (CA) caused until 10 minutes after reperfusion were noted. Medicines (compounds obtained in the above Examples) were orally administered (5 ml/kg) at 1 hour before tightening the ligature. The effect of medicines were estimated in comparison with the frequency of a group received a vehicle according to X^2 -test.
Structure (SMILES),"CA (Frequency), cardiac arrest","VF (Frequency), ventricular fibrillation","VT (Frequency), ventricular tachycardia"
"CS(=O)(=O)NCCSc1cccc2ncc(CN3CCOCC3)n12 [Compound 14, 5-[2-(methylsulfonylamino)ethylthio]3-morpholinomethylimidazo[1,2-a]pyridine]",0/3,0/3,1/3
"O=S(=O)(NCCSc1cccc2nccn12)C(F)(F)F [Compound 26, 5-[2-(Trifluoromethylsulfonylamino)ethylthio]imidazo[1,2-a]pyridine]",1/3,1/3,2/3

# Same assay, conditions: 30 mg/kg oral, 1 hour before ligation; until 10 minutes after reperfusion
Structure (SMILES),"CA (Frequency), cardiac arrest","VF (Frequency), ventricular fibrillation","VT (Frequency), ventricular tachycardia"
"CC(=O)Nc1ccc(S(=O)(=O)NCCSc2cccc3nccn23)cc1 [Compound 32, 5-[2-[4-(Acetamido)phenylsulfonylamino]ethylthio]imidazo[1,2-a]pyridine]",1/3,1/3,1/3
"CNC(=O)OCCSc1cccc2nccn12 [Compound 118, 5-[2-(methylcarbamoyloxy)ethylthio]imidazo[1,2-a]pyridine]",0/3,1/3,1/3
